# Tests used:
# dog [1] = details: Chronic toxicity, beagle, Oral, Feed, dose end: 12 month, group: systemic
# rat [2] = details: Prenatal developmental toxicity study, wistar, Oral, Gavage/Intubation, dose end: 16 GD
# rabbit = details: Prenatal developmental toxicity study, dutch, Oral, Gavage/Intubation, dose end: 18 GD
# dog [3] = details: Chronic toxicity, beagle, Oral, Capsule, dose end: 12 month, group: systemic
# rat [4] = details: Multigenerational reproductive toxicity study, sprague dawley, Oral, Feed, dose end: 2 generation
# rat [5] = details: Combined chronic toxicity/carcinogenicity; wistar; Oral; Feed; dose end: 28 month; group: systemic; systemic / in life observation / body weight / body weight + systemic / in life observation / body weight / body weight gain
# rat [6] = details: Subchronic oral toxicity in rodents, wistar, Feed, dose end: 3 month, group: systemic
# rat [7] = details: Subchronic oral toxicity in rodents, fischer, Gavage/Intubation, dose end: 13 week, group: systemic
# mouse [8] = details: Carcinogenicity, b6c3f1, Oral, Gavage/Intubation, dose end: 103 week, group: systemic
# rat [9] = details: Sub-acute repeat dose toxicity, fischer, Oral, Gavage/Intubation, dose end: 16 day, group: systemic
# mouse [10] = details: Subchronic oral toxicity in rodents, b6c3f1, Gavage/Intubation, dose end: 13 week, group: systemic
# rat [11] = details: Carcinogenicity; fischer; Oral; Gavage/Intubation; dose end: 103 week; group: systemic; systemic / pathology microscopic / spleen / fibrosis + systemic / pathology microscopic / stomach / dysplasia + systemic / pathology …
# mouse [12] = details: Sub-acute repeat dose toxicity, b6c3f1, Oral, Gavage/Intubation, dose end: 16 day, group: systemic
# mouse [13] = details: Prenatal developmental toxicity study; cd1; Oral; Gavage/Intubation; dose end: 15 GD; group: maternal; systemic / in life observation / clinical signs / ataxia + systemic / in life observation / mortality / mortality
# rat [14] = details: Developmental neurotoxicity study; other; Oral; Gavage/Intubation; dose end: 112 PND; group: cannot be grouped; systemic / in life observation / body weight / offspring (pup) weight gain
# rat [15] = details: Prenatal developmental toxicity study, sprague dawley, Oral, Gavage/Intubation, dose end: 15 GD
# dog [16] = details: Chronic toxicity; beagle; Oral; Feed; dose end: 104 week; group: cholinesterase; cholinesterase / cholinesterase / cholinesterase / erythrocyte cholinesterase (che) + cholinesterase / cholinesterase / cholinesterase / …
# dog [17] = details: Chronic toxicity; beagle; Oral; Feed; dose end: 12 month; group: cholinesterase; cholinesterase / cholinesterase / cholinesterase / brain cholinesterase (che) + cholinesterase / cholinesterase / cholinesterase / …
# mouse [18] = details: Carcinogenicity, cd1, Oral, Feed, dose end: 108 week
# dog [19] = details: Chronic toxicity; beagle; Oral; Feed; dose end: 107 week; group: systemic; systemic / pathology gross / eye / [other] + systemic / pathology gross / eye / discolored + systemic / pathology microscopic / eye / [other…
# rat [20] = details: Combined chronic toxicity/carcinogenicity, fischer, Oral, Feed, dose end: 105 week
# [21] = group: developmental, developmental / developmental malformation / bone / bent + developmental / developmental malformation / bone / incomplete ossification + …
# [22] = group: maternal, reproductive / reproductive performance / resorptions / resorptions + systemic / in life observation / body weight / body weight gain + …
# [23] = group: developmental, developmental / developmental malformation / bone / incomplete ossification + developmental / developmental malformation / bone / misshapen…
# [24] = group: maternal, reproductive / reproductive performance / aborted / aborted + systemic / in life observation / food consumption / food consumption + …
# [25] = systemic / clinical chemistry / gamma glutamyl transferase (ggt) / gamma glutamyl transferase (ggt)
# [26] = group: offspring, systemic / in life observation / clinical signs / reduced body size
# [27] = group: offspring, systemic / in life observation / clinical signs / reduced body size + systemic / in life observation / body weight / offspring (pup) weight
# [28] = group: parental, systemic / in life observation / body weight / body weight + systemic / in life observation / body weight / body weight gain + systemic / in…
# [29] = group: parental, systemic / in life observation / body weight / body weight + systemic / in life observation / food consumption / food consumption
# [30] = systemic / hematology / hemoglobin (hgb) / hemoglobin (hgb) + systemic / in life observation / body weight / body weight gain + systemic / …
# [31] = systemic / urinalysis / appearance and color / appearance and color
# [32] = systemic / pathology gross / sperm measure / sperm count + systemic / pathology gross / sperm measure / sperm motility
# [33] = systemic / in life observation / body weight / body weight + systemic / pathology microscopic / harderian gland / adenoma + systemic / …
# [34] = systemic / in life observation / body weight / body weight
# [35] = systemic / in life observation / body weight / body weight + systemic / in life observation / mortality / mortality + systemic / pathology …
# [36] = systemic / in life observation / body weight / body weight + systemic / pathology gross / sperm measure / sperm count + systemic / pathology…
# [37] = systemic / pathology gross / sperm measure / sperm count + systemic / pathology gross / sperm measure / sperm motility + systemic / …
# [38] = systemic / in life observation / body weight / body weight + systemic / in life observation / clinical signs / defecation (diarrhea) + …
# [39] = group: cholinesterase, cholinesterase / cholinesterase / cholinesterase / erythrocyte cholinesterase (che) + cholinesterase / cholinesterase / cholinesterase / …
# [40] = group: developmental, developmental / developmental malformation / bone / incomplete ossification
# [41] = group: cholinesterase, cholinesterase / cholinesterase / cholinesterase / brain cholinesterase (che) + cholinesterase / cholinesterase / cholinesterase / …
# [42] = group: systemic, systemic / organ weight / kidney / relative to body weight + systemic / pathology microscopic / heart / lymphoma malignant
# [43] = group: systemic, systemic / organ weight / kidney / relative to body weight + systemic / pathology microscopic / heart / lymphoma malignant + systemic / …
# [44] = group: systemic, systemic / pathology gross / harderian gland / degeneration + systemic / in life observation / body weight / body weight + systemic / in …
smiles,measurement,setting,value
CCCN(CCC)c1c([N+](=O)[O-])cc(C(F)(F)F)cc1[N+](=O)[O-] [Trifluralin],NEL,dog [1]; systemic / hematology / methemoglobin / methemoglobin + systemic / clinical chemistry / cholesterol / cholesterol + systemic / clinical …,0.8 mg/kg/day
same,LOAEL,dog [1]; systemic / organ weight / liver / absolute,3.8 mg/kg/day
same,NOAEL,dog [1]; systemic / organ weight / liver / absolute + systemic / clinical chemistry / cholesterol / cholesterol + systemic / clinical chemistry / …,0.8 mg/kg/day
same,LEL,dog [1]; systemic / organ weight / liver / absolute + systemic / hematology / methemoglobin / methemoglobin,3.8 mg/kg/day
same,LEL,rat [2]; [21],500 mg/kg/day
same,LOAEL,rat [2]; [21],500 mg/kg/day
same,NEL,rat [2]; [21],100 mg/kg/day
same,NOAEL,rat [2]; [21],100 mg/kg/day
same,LEL,rat [2]; [22],500 mg/kg/day
same,LOAEL,rat [2]; [22],500 mg/kg/day
same,NEL,rat [2]; [22],100 mg/kg/day
same,NOAEL,rat [2]; [22],100 mg/kg/day
same,LEL,rabbit; [23],500 mg/kg/day
same,LOAEL,rabbit; [23],500 mg/kg/day
same,NEL,rabbit; [23],225 mg/kg/day
same,NOAEL,rabbit; [23],225 mg/kg/day
same,LEL,rabbit; [24],225 mg/kg/day
same,LOAEL,rabbit; [24],225 mg/kg/day
same,NEL,rabbit; [24],100 mg/kg/day
same,NOAEL,rabbit; [24],100 mg/kg/day
same,LEL,dog [3]; [25],0.75 mg/kg/day
same,NEL,dog [3]; [25],< 0.75 mg/kg/day
same,NOAEL,dog [3]; systemic / clinical chemistry / gamma glutamyl transferase (ggt) / gamma glutamyl transferase (ggt) + systemic / in life observation / body …,2.4 mg/kg/day
same,LOAEL,dog [3]; systemic / in life observation / body weight / body weight + systemic / in life observation / body weight / body weight gain + systemic / in…,40 mg/kg/day
same,LEL,rat [4]; [26],47 mg/kg/day
same,LOAEL,rat [4]; [26],47 mg/kg/day
same,NEL,rat [4]; [27],15 mg/kg/day
same,NOAEL,rat [4]; [27],15 mg/kg/day
same,NEL,rat [4]; [28],15 mg/kg/day
same,NOAEL,rat [4]; [28],15 mg/kg/day
same,LEL,rat [4]; [29],47 mg/kg/day
same,LOAEL,rat [4]; [29],47 mg/kg/day
same,LEL,rat [5],169 mg/kg/day
same,LOAEL,rat [5],169 mg/kg/day
same,NEL,rat [5],40 mg/kg/day
same,NOAEL,rat [5],40 mg/kg/day
same,LOAEL,rat [6]; [30],392 mg/kg/day
same,NOAEL,rat [6]; [30],154 mg/kg/day
same,LEL,rat [6]; [31],59 mg/kg/day
same,NEL,rat [6]; [31],< 59 mg/kg/day
OCC1CO1 (stereo not drawn) [Glycidol],NOAEL,rat [7]; systemic / in life observation / body weight / body weight + systemic / pathology microscopic / brain / necrosis + systemic / in life …,100 mg/kg/day
same,LOAEL,rat [7]; systemic / in life observation / body weight / body weight + systemic / pathology microscopic / brain / necrosis + systemic / pathology …,200 mg/kg/day
same,LEL,rat [7]; [32],25 mg/kg/day
same,NEL,rat [7]; [32],< 25 mg/kg/day
same,LEL,mouse [8]; [33],25 mg/kg/day
same,NEL,mouse [8]; [33],< 25 mg/kg/day
same,NOAEL,mouse [8]; [33],25 mg/kg/day
same,LOAEL,mouse [8]; systemic / in life observation / body weight / body weight + systemic / pathology microscopic / stomach / hyperplasia,50 mg/kg/day
same,LEL,rat [9]; [34],150 mg/kg/day
same,LOAEL,rat [9]; [34],150 mg/kg/day
same,NEL,rat [9]; [35],75 mg/kg/day
same,NOAEL,rat [9]; [35],75 mg/kg/day
same,LEL,mouse [10]; [36],19 mg/kg/day
same,NEL,mouse [10]; [36],< 19 mg/kg/day
same,LOAEL,mouse [10]; [37],75 mg/kg/day
same,NOAEL,mouse [10]; [37],38 mg/kg/day
same,LEL,rat [11],37.5 mg/kg/day
same,LOAEL,rat [11],37.5 mg/kg/day
same,NEL,rat [11],< 37.5 mg/kg/day
same,NOAEL,rat [11],< 37.5 mg/kg/day
same,LEL,mouse [12]; systemic / in life observation / body weight / body weight + systemic / in life observation / clinical signs / defecation (diarrhea),150 mg/kg/day
same,LOAEL,mouse [12]; [38],> 600 mg/kg/day
same,NEL,mouse [12]; [38],75 mg/kg/day
same,NOAEL,mouse [12]; [38],≥ 600 mg/kg/day
same,LEL,mouse [13],200 mg/kg/day
same,LOAEL,mouse [13],> 200 mg/kg/day
same,NEL,mouse [13],150 mg/kg/day
same,NOAEL,mouse [13],≥ 200 mg/kg/day
CN(C)CCCN1c2ccccc2Sc2ccc(Cl)cc21 [Chlorpromazine],LEL,rat [14],3 mg/kg/day
same,LOAEL,rat [14],> 9 mg/kg/day
same,NEL,rat [14],1 mg/kg/day
same,NOAEL,rat [14],≥ 9 mg/kg/day
CCOP(=S)(OCC)SCCSCC [Disulfoton],LEL,rat [15]; [39],0.3 mg/kg/day
same,LOAEL,rat [15]; [39],0.3 mg/kg/day
same,NEL,rat [15]; [39],0.1 mg/kg/day
same,NOAEL,rat [15]; [39],0.1 mg/kg/day
same,LEL,rat [15]; [40],1 mg/kg/day
same,LOAEL,rat [15]; [40],1 mg/kg/day
same,NEL,rat [15]; [40],0.3 mg/kg/day
same,NOAEL,rat [15]; [40],0.3 mg/kg/day
same,LEL,dog [16],0.05 mg/kg/day
same,LOAEL,dog [16],0.05 mg/kg/day
same,NEL,dog [16],0.025 mg/kg/day
same,NOAEL,dog [16],0.025 mg/kg/day
same,LEL,dog [17],0.094 mg/kg/day
same,LOAEL,dog [17],0.094 mg/kg/day
same,NEL,dog [17],0.013 mg/kg/day
same,NOAEL,dog [17],0.013 mg/kg/day
same,LEL,mouse [18]; [41],2.4 mg/kg/day
same,LOAEL,mouse [18]; [41],2.4 mg/kg/day
same,NEL,mouse [18]; [41],0.6 mg/kg/day
same,NOAEL,mouse [18]; [41],0.6 mg/kg/day
same,LEL,mouse [18]; [42],0.15 mg/kg/day
same,NEL,mouse [18]; [42],< 0.15 mg/kg/day
same,LOAEL,mouse [18]; [43],> 2.4 mg/kg/day
same,NOAEL,mouse [18]; [43],≥ 2.4 mg/kg/day
same,LEL,dog [19],1.5 mg/kg/day
same,LOAEL,dog [19],1.5 mg/kg/day
same,NEL,dog [19],0.0375 mg/kg/day
same,NOAEL,dog [19],0.0375 mg/kg/day
same,LEL,rat [20]; [41],0.04 mg/kg/day
same,LOAEL,rat [20]; [41],0.04 mg/kg/day
same,NEL,rat [20]; [41],< 0.04 mg/kg/day
same,NOAEL,rat [20]; [41],< 0.04 mg/kg/day
same,LOAEL,"rat [20]; group: systemic, systemic / pathology gross / harderian gland / degeneration",0.65 mg/kg/day
same,LEL,rat [20]; [44],0.65 mg/kg/day
same,NEL,rat [20]; [44],0.165 mg/kg/day
same,NOAEL,rat [20]; [44],0.165 mg/kg/day
